Reference: US20250049749A1, “COMPOSITION FOR IMPROVING SLEEP QUALITY OR CONTROLLING AUTONOMIC NERVOUS SYSTEM” (OTSUKA PHARMACEUTICAL CO., LTD., priority 2021, published 2025)
Entries after “also recorded” stand apart in the source; their conditions may differ.

What was measured:
Format in all cases: in vivo, human
[1] = tested on: healthy adult men and women; test: Test 1: randomized, double-blind, placebo-controlled, crossover comparative test (sleep and autonomic nervous system, Fitbit Charge 4)
Protocol: A randomized, double-blind, placebo-controlled, crossover comparative test as summarized in the table below was conducted to examine the relationship between kaempferol, sleep, and the autonomic nervous system.
The granular foods used in the test were prepared according to the following procedure. Horseradish leaves were extracted twice with 50% aqueous ethanol at 50° C. and concentrated under reduced pressure. The concentrate was purified with resin to obtain a solution. Hemicellulase “Amano” 90 and Lactase F “Amano” (produced by Amano Enzyme, Inc.) were added to the solution to allow the enzyme to act thereon while stirring at 50° C. The resulting reaction liquid was then heated to 80° C. and maintained for 20 minutes to inactivate the enzyme. The resulting treated liquid was then freeze-dried to give an ethanol extract powder. This powder was combined with an equal amount (on a weight basis) of starch and erythritol and mixed into granules. The granules were packed in aluminum pouches in an amount of 116 mg (containing 10 mg of kaempferol) per pouch. The subjects ingested the contents of one pouch at one time (10 mg of kaempferol in total). The food used as a placebo was granules of starch and erythritol.
The sleep score is an index of sleep quality on a scale of 0 to 100, with a score of 90 to 100 indicating very good sleep quality, a score of 80 to 89 indicating good sleep quality, a score of 60 to 79 indicating slightly low sleep quality, and a score of 60 or less indicating low sleep quality. The sleeping heart rate is known to correlate with sleep quality. Specifically, it has been reported that the higher the heart rate during sleep, the less satisfactory the sleep obtained is (i.e., the quality of sleep is low) (see Non-Patent Literature (NPL) 1). […] This is generally consistent with the difference between the average sleeping heart rate in people with good quality sleep and that in people with poor sleep quality (FIG. 3 in NPL 1).
RMSSD is the square root of the mean squared differences of successive adjacent R-R intervals (interval from one QRS wave to the next QRS wave) and is an index of vagal tone intensity. A rise in RMSSD indicates increased parasympathetic activity or decreased sympathetic activity. […] According to the formula shown in FIG. 2 (right), KMP intake is considered to rejuvenate the age of autonomic nervous system function by 16.3 years.
The LF/HF ratio is a ratio of low frequency (LF) to high frequency (HF) power and represents the overall balance between the sympathetic nervous system and the parasympathetic nervous system. A higher LF/HF ratio indicates a state of sympathetic nervous system dominance, whereas a lower LF/HF ratio indicates parasympathetic nervous system dominance. […] According to the formula shown in FIG. 3 (right), KMP intake is considered to rejuvenate the age of autonomic nervous system function by 5.8 years.

athletes = test: Test 2: athlete questionnaire (0 to 10) and comments before and on day 30 of intake
Protocol: The following tests were carried out to investigate the functions of kaempferol. [table] [table] In addition to the above score evaluations, an optional evaluation of the mental and physical state after intake of the test sample as compared to that before the intake was obtained in the form of comments.

[2] = tested on: persons with meteoropathy; test: Test 3: meteoropathy symptom questionnaire before and after start of intake
Protocol: The test shown below was conducted to investigate the functions of kaempferol associated with meteoropathy. [table]

[3] = 10 mg KMP once a day, two weeks, vs placebo, FIG. 1
[4] = 10 mg KMP once a day, day 30 vs before intake, FIG. 4, FIG. 5
[5] = all subjects (159 athletes), 10 mg KMP once a day, day 30 vs before intake, FIG. 4
[6] = optional comment of a single subject, state after intake of the test sample vs before
[7] = swimmers (50 persons), day 30 vs before intake, FIG. 5
[8] = all symptoms, during KMP intake vs before, FIG. 7

SMILES: O=c1c(O)c(-c2ccc(O)cc2)oc2cc(O)cc(O)c12 [KMP, kaempferol]
- Reduction of sleeping heart rate on average [1, 3]: 3.5 bpm
- Sleep duration [1, 3]: no significant change
- Sleeping heart rate [1, 3]: significantly reduces
- RMSSD during sleep ([1]; 10 mg KMP once a day, two weeks, vs placebo, FIG. 2 (left)): increase in RMSSD value
- LF/HF ratio during sleep ([1]; 10 mg KMP once a day, two weeks, vs placebo, FIG. 3 (left)): reduces the LF/HF ratio
- Rejuvenation of the age of autonomic nervous system function (from RMSSD vs age formula) ([1]; according to the formula shown in FIG. 2 (right)): 16.3 years
- Rejuvenation of the age of autonomic nervous system function (from LF/HF ratio vs age formula) ([1]; according to the formula shown in FIG. 3 (right)): 5.8 years
- Sleep score ([1]; granular food with 10 mg KMP once a day after breakfast, two weeks, vs placebo, 34 subjects, scale 0 to 100, FIG. 1): significantly improves
- Achievement of exercise performance (athletes; [4]): useful
- Fatigue alleviation (athletes; [4]): useful
- Improvement of endurance (improved shortness of breath) (athletes; [4]): useful
- Recovery from fatigue (athletes; [4]): useful
- Ease in sleep (questionnaire score) (athletes; [5]): significant improvement
- Ease in waking up (questionnaire score) (athletes; [5]): significant improvement
- Comments relating to menstruation (athletes; [6]): Menstrual pain has been relieved. Menstrual cycle; also recorded: irregularities has been improved; also recorded: Menstrual pain has been relieved and abdominal; also recorded: Swollen feet before menstruation has been relieved; also recorded: has come naturally; also recorded: returned to normal
- Comments relating to mental state (athletes; [6]): Have more motivation to practice; also recorded: Feel more highly motivated before a competition; also recorded: Feel more positive; also recorded: More mentally stable; also recorded: No longer feel depressed; also recorded: Feel less tired and more motivated to practice; also recorded: Feel better during practice; also recorded: Have become able to run more calmly than usual; also recorded: Feel more comfortable during running; also recorded: Feel more relaxed both during and outside of practice
- Other comments (athletes; [6]): The time taken to get rid of jet lag was reduced; also recorded: The symptoms of seasonal colds were not seen; also recorded: Stools have improved; also recorded: Bowel movements have improved; also recorded: Healing from injuries is faster; also recorded: Healing of fractures is much faster; also recorded: Healing of wounds after tooth extraction is faster; also recorded: Easier body weight loss; also recorded: Easier to control body weight gain; also recorded: Have improved concentration; also recorded: Symptoms of jet lag were alleviated
- Ease in sleep (questionnaire score), improvement in swimmers (athletes; [7]): particularly prominent
- Ease in waking up (questionnaire score), improvement in swimmers (athletes; [7]): particularly prominent
- Effect on meteoropathy overall ([2]; 10 mg KMP once a day, 4 consecutive weeks): effective in the treatment and improvement of meteoropathy
- Frequency of occurrence of each symptom of meteoropathy ([2]; all 12 symptoms (stiff shoulders and neck, fatigue, lassitude, headache, overall ill health, irritation, depressed mood, inability to think straight, lower back pain, lethargy, anxiety, joint pain), 10 mg KMP once a day, 4 weeks, vs before intake, 393 subjects, FIG. 6): significantly reduces
- Degree of each symptom of meteoropathy (0-10 point scale) ([2]; all 12 symptoms, KMP intake vs before intake, FIG. 8): significantly alleviated
- Duration of each symptom of meteoropathy [2, 8]: significantly reduced duration
- Proportion of no occurrence of the symptom [2, 8]: increased proportion of no occurrence
